Source: patent US8338465B2, “Cyclic carboxylic acid rhodanine derivatives for the treatment and prevention of tuberculosis” (priority 2006, dated 2012)
Where “and” joins values, the source holds several entries; their conditions need not be identical. Identical values can stand only once. Like-named read-outs stand apart in the source and are kept apart here.

Key:
[1] = molecular target: T1, dihydrolipoamide acyltransferase (DlaT) (Mycobacterium tuberculosis, UniProt P9WIS7); assay: DlaT inhibition (Dlat IC50); DTNB peroxidase assay with Lpd, DlaT and AhpD; format: biochemical
T1 sequence (P9WIS7 1-553): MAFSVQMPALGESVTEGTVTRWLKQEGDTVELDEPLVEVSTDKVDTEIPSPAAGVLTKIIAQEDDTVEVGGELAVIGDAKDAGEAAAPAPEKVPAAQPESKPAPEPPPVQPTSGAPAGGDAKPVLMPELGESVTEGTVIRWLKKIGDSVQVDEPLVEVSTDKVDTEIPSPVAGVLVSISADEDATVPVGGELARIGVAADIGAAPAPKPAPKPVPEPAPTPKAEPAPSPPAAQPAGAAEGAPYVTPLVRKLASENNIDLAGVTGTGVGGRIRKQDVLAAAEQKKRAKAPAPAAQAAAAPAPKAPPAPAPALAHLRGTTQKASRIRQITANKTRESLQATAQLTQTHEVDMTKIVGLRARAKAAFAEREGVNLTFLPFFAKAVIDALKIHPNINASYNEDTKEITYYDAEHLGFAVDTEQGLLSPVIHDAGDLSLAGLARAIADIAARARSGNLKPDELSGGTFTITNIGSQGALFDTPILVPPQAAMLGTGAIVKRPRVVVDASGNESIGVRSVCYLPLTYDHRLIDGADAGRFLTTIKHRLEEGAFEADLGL

Mtb's PDH = molecular target: T2, Mtb's PDH (Mycobacterium tuberculosis, UniProt P9WIS7); assay: PDH assay with Lpd, DlaT and AceE (NADH formation at 340 nm); format: biochemical; conditions: preincubation at room temperature, remaining activity over time; FIG. 4
T2 sequence (P9WIS7 1-553): T1 sequence (P9WIS7 1-553)
Procedure: Reaction mixtures containing 200 nM Lpd, 350 nM DlaT, 200 nM AceE with or without 1 mM NAD+, 1 mM pyruvate, […] and […] D155931 were preincubated at room temperature and […] tested for remaining activity over time by PDH assay.

[2] = tested on: Mycobacterium bovis var. Bacille Calmette Guerin (BCG); format: cell-based; conditions: pH 5.5 or pH 4.5, plus or minus NaNO2, 4 days, CFU; FIGS. 6 and 7
bacteria and yeast = conditions: 10^4-10^5 CFU/mL inoculum
Procedure: (§1) Bacteria were grown to mid-logarithmic phase, diluted to A600=0.1 and inoculated in 200 μl in 96-well plates in the presence of serial dilutions of compounds or vehicle control (DMSO). MICs (minimal concentrations that prevented bacterial growth) were determined at A600 after 24 hours incubation at 37° C.

Staphylococcus aureus = assay: MIC determination (A600 after 24 hours); conditions: for MIC: Staphylococcus aureus, 10^4-10^5 CFU/mL inoculum
Procedure: as §1

Enterococcus faecalis = assay: MIC determination (A600 after 24 hours); conditions: for MIC: Enterococcus faecalis
Procedure: as §1

[3] = tested on: PDH complex from porcine heart; assay: PDH assay with porcine heart PDH complex; conditions: increasing concentrations up the limit of its solubility; FIG. 5
[4] = tested on: Mycobacterium tuberculosis; assay: Killing of M. tuberculosis at acidic pH plus or minus nitrite (CFU counts); conditions: pH 5.5 or pH 4.5, plus or minus NaNO2, 4 days, FIG. 8
Excerpt: In vitro, RNI can be generated under physiologically relevant conditions by provision of nitrite at a mildly acidified pH. During infection, Mtb resides chiefly in the phagosome of macrophages, where the pH is ˜6 in immunologically non-activated cells and can fall to ˜4.5 in those that have been activated by interferon-γ. Activated macrophages produce RNI, the most abundant of which is the accumulating autoxidation product of NO, nitrite (NO2^−). In the present assay, the intraphagosomal milieu of moderately activated macrophages was partially mimicked by culturing mycobacteria at pH 5.5 with nitrite. […] At pH 5.5, 0.5 mM nitrite generates an amount of NO no greater than that released by 3×10^5 activated macrophages in 0.5 mL in 24 hours. In the present assay pH 5.5, with or without 0.5 mM nitrite, was used.
M. tuberculosis was grown in 7H9+0.2% glycerol+0.05% Tween-80+10% ADN, pH 6.6. CFU were enumerated on 7H11 agar plates with 10% OADC enrichment. Mid-log cultures (A580 0.8-1.0) were prepared as single cell suspensions in 7H9 at pH 5.5 or pH 4.5 and diluted to 0.1 (A580). Inoculum was determined by CFU. Bacteria were incubated with compounds plus or minus 0.5 mM NaNO2 (pH 5.5) or 0.05 NaNO2 (pH 4.5) in 96 well plates in 200 μl for 4 days and plated for CFU counts after serial dilution in 7H9, pH 6.6.

SMILES: O=C(O)c1cccc(N2C(=O)C(=Cc3ccc(-c4ccccc4Cl)o3)SC2=S)c1 (single isomer, unassigned) [Mycopyrin 5, 3-[5[[5-(2-chlorophenyl)-2-furanyl]methylene]-4-oxo-2-thioxo-3-thiazolidinyl]benzoic acid]
- IC50 ([1]; Dlat IC50 category, Table 1, Compounds A1 to A294): 11 to 40 µM
- reversibility of DlaT inhibition ([1]; in presence of NADH, preincubation at room temperature, remaining activity over time, FIG. 3): irreversible inhibitor
- type of inhibition of Mtb's PDH (Mtb's PDH): time-dependent, substrate-independent inhibitor
- bactericidal activity to M. bovis BCG [2]: bactericidal
- MIC (bacteria and yeast; Escherichia coli, pH 5.5): >50 μM and >22 μg/ml
- MIC (bacteria and yeast; Escherichia coli, pH 6.6): >50 μM and >22 μg/ml
- MIC (bacteria and yeast; Pseudomonas aeruginosa, pH 5.5): >50 μM and >22 μg/ml
- MIC (bacteria and yeast; Pseudomonas aeruginosa, pH 6.6): >50 μM and >22 μg/ml
- MIC (Staphylococcus aureus; pH 5.5, Staphylococcus aureus (brain heart infusion), pH 5.5): 5 µM and 2.2 µg/mL
- MIC (Staphylococcus aureus; pH 5.5, Staphylococcus aureus (nutrient broth), pH 5.5): 1 µM and 0.43 µg/mL
- MIC (Staphylococcus aureus; pH 6.6, Staphylococcus aureus (brain heart infusion), pH 6.6): > 50 µM and > 22 µg/mL
- MIC (Staphylococcus aureus; pH 6.6, Staphylococcus aureus (nutrient broth), pH 6.6): 2.5 µM and 1.1 µg/mL
- killing of Staphylococcus aureus (Staphylococcus aureus; Table 22): kills
- MIC (Enterococcus faecalis; pH 5.5): 5 µM and 2.2 µg/mL
- MIC (Enterococcus faecalis; pH 6.6): > 50 µM and > 22 µg/mL
- killing of Enterococcus faecalis (Enterococcus faecalis; Table 22): kills
- inhibition of porcine PDH [3]: does not inhibit
- bactericidal activity to Mycobacterium tuberculosis [4]: bactericidal
